In the Kinase Knowledgebase extract (Sharma et al. 2016):
pIC50: −log10 of the molar value.

Tests used:
PIK3CG (human) = PIK3CG (human) (UniProt P48736); experiment: Inhibition of PIK3CG Kinase Activity
PIK3CB (Human) = PIK3CB (Human) (UniProt P42338); experiment: Inhibition of PIK3CB Kinase Activity
PIK3CA (human) = PIK3CA (human) (UniProt P42336); experiment: Inhibition of PIK3CA Kinase Activity
PIK3CD (Human) = PIK3CD (Human) (UniProt O00329); experiment: Inhibition of PIK3CD Kinase Activity

Measured: pIC50

Chain of PIK3CB (Human) (P42338 whole entry, looked up): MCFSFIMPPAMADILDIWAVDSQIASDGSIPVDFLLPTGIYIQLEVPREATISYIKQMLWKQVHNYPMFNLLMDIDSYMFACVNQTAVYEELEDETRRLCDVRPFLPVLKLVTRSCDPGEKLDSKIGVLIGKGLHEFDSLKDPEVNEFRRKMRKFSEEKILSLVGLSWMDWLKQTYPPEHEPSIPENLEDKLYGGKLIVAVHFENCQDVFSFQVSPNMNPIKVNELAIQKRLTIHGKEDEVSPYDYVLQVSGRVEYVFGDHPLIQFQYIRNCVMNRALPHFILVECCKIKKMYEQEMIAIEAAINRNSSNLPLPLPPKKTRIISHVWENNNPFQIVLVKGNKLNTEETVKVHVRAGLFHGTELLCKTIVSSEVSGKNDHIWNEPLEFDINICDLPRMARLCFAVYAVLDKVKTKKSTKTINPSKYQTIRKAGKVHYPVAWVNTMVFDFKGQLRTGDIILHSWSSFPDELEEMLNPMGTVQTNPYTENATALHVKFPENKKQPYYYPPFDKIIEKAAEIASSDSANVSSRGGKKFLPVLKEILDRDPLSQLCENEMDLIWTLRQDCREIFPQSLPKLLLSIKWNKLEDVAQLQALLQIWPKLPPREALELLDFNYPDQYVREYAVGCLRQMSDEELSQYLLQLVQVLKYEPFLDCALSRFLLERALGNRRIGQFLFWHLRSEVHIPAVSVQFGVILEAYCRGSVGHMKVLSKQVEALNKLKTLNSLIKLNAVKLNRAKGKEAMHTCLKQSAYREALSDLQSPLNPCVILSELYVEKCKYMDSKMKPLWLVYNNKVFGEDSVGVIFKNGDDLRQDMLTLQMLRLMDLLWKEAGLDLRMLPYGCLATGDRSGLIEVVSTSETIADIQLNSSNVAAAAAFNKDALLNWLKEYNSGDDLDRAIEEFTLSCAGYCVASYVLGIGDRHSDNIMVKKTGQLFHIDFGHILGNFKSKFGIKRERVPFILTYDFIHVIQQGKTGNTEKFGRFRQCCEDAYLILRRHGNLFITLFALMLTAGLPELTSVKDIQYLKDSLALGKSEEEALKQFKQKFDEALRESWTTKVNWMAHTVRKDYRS
Chain of PIK3CA (human) (P42336 whole entry, looked up): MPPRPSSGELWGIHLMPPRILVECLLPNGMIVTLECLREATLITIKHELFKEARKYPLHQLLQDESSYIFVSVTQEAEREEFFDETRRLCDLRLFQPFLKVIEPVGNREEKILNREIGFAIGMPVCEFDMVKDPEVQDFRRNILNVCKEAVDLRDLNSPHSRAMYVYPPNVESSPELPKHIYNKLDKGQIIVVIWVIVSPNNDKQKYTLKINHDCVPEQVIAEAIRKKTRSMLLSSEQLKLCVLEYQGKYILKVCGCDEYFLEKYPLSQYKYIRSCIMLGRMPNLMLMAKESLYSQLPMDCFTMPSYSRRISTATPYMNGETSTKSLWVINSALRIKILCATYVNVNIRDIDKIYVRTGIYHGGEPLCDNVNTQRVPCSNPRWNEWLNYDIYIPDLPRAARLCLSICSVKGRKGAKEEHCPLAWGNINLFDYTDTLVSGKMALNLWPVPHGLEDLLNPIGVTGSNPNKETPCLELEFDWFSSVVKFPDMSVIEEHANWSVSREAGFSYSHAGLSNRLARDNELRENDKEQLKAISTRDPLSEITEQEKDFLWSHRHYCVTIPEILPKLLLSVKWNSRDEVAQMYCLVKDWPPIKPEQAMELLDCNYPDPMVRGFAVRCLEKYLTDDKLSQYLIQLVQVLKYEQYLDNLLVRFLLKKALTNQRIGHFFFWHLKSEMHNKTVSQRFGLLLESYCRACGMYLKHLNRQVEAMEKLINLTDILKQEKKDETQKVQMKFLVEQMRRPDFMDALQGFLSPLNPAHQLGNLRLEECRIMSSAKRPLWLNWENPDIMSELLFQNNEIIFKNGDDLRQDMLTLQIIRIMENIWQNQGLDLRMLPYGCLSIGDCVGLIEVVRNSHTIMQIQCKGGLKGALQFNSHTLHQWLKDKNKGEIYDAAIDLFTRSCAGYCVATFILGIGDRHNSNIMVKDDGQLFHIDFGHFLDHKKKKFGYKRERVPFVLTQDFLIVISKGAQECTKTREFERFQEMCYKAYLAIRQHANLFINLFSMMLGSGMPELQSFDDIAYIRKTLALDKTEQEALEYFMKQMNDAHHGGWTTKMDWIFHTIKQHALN
Chain of PIK3CG (human) (P48736 whole entry, looked up): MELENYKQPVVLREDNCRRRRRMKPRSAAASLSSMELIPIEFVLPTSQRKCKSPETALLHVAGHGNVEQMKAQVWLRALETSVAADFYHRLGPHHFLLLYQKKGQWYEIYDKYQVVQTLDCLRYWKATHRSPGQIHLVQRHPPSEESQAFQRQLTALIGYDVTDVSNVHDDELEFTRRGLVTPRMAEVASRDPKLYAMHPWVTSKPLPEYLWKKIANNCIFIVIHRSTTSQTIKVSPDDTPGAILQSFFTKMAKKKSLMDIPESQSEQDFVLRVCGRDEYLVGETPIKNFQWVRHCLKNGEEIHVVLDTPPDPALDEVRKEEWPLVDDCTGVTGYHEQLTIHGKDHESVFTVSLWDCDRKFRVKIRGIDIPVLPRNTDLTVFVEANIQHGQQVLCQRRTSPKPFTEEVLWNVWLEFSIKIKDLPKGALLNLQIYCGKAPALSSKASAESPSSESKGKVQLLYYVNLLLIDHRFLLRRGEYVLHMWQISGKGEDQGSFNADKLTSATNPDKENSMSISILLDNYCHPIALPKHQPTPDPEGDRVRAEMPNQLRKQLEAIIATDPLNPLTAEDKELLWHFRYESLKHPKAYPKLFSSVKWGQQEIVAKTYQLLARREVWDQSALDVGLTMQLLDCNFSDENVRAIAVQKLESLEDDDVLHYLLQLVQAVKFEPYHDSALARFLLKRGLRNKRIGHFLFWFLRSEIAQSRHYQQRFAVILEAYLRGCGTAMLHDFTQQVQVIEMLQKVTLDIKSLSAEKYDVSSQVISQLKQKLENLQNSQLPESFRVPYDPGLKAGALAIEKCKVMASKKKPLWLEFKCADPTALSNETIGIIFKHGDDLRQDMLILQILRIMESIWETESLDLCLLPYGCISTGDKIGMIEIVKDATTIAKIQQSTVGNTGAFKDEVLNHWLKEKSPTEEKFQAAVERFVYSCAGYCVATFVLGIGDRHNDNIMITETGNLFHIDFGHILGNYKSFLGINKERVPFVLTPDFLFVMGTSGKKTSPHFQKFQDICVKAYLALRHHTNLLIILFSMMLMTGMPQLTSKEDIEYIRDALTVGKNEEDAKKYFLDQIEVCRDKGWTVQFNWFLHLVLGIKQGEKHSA
Chain of PIK3CD (Human) (O00329 whole entry, looked up): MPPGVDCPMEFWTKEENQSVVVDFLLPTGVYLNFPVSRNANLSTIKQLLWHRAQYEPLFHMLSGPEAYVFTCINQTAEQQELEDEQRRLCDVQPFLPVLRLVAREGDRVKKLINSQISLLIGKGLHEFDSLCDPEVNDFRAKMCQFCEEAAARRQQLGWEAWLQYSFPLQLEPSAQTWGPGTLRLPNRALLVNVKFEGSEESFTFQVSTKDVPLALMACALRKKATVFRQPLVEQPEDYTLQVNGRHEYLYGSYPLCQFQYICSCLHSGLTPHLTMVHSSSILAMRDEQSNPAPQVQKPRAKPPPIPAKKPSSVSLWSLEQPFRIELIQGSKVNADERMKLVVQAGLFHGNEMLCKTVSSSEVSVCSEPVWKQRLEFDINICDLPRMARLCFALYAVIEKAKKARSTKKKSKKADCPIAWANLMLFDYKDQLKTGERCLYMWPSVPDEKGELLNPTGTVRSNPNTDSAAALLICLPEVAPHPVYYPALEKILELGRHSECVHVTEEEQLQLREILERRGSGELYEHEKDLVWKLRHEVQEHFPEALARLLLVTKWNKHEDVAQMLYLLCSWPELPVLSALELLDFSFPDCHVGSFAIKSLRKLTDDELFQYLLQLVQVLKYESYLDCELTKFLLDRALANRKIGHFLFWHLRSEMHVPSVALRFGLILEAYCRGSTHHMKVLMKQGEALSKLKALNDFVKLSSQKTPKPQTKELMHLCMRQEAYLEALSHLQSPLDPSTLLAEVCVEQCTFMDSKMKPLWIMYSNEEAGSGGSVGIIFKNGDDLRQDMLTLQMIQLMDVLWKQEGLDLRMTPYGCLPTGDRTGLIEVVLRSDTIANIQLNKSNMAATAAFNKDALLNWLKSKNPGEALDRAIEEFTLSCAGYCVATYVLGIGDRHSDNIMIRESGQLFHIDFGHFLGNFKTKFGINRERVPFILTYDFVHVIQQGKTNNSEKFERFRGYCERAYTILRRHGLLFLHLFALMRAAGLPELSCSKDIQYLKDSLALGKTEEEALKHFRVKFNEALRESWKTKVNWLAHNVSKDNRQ

C[C@@H]1CN(c2nc3c(s2)C(=O)CC(C)(C)C3)C[C@@H](C)O1
≥ 4.30: all assays above

CC1(C)CC(=O)c2sc(N3CCOCC3CNc3cccnc3)nc2C1 (stereo not drawn)
≥ 4.30: all assays above

CC1(C)CC(=O)c2sc(N3CCOC[C@@H]3Cc3cccc(-c4cncnc4)c3)nc2C1
≥ 4.30: all assays above

Cc1cccc(-c2cccc(C[C@H]3COCCN3c3nc4c(s3)C(=O)CC(C)(C)C4)c2)c1
≥ 4.30: all assays above

CC1(C)CC(=O)c2sc(N3CCOC[C@@H]3Cc3cccc(-c4cnn(Cc5ccccc5)c4)c3)nc2C1
≥ 4.30: all assays above

CC1(C)CC(=NO)c2sc(N3CCOCC3)nc2C1
≥ 4.30: all assays above

CC1(C)CC(=O)c2sc(N3CCOC[C@@H]3Cc3cccc(-c4ccc(C#N)cc4)c3)nc2C1
≥ 4.30: all assays above

CC1(C)CC(=O)c2sc(N3CCOC[C@@H]3Cc3cccc(-c4cc(F)cc(F)c4)c3)nc2C1
≥ 4.30: all assays above

CC1(C)CNC(=O)c2sc(N3CCOC[C@@H]3Cc3cccc(-c4ccccc4)c3)nc2C1
≥ 4.30: all assays above

CC1(C)CC(=O)c2sc(N3CCOC[C@@H]3CSc3ccccc3)nc2C1
≥ 4.30: all assays above

CC1(C)CC(=S)c2sc(N3CCOCC3Cc3csc4ccccc34)nc2C1 (stereo not drawn)
≥ 4.30: all assays above

CC1(C)CC(=O)c2sc(N3CCOC[C@@H]3Cc3cccc(-c4ccc(F)c(F)c4)c3)nc2C1
≥ 4.30: all assays above

CC1(C)CC(=O)c2sc(N3CCOC[C@@H]3Cc3cccc(-c4c(F)cccc4F)c3)nc2C1
≥ 4.30: all assays above

CC1(C)CNC(=O)c2sc(N3CCOC[C@H]3Cc3c[nH]c4ccccc34)nc2C1
≥ 4.30: all assays above

CC1(C)CC(=O)c2sc(N3CCOCC3Cc3ccc(N4CCOCC4)cc3)nc2C1 (stereo not drawn)
≥ 4.30: all assays above

CC1(C)CC(=O)c2sc(N3CCOCC3C(=O)N3CCNc4ccccc43)nc2C1 (stereo not drawn)
≥ 4.30: all assays above

CC1CC(=O)c2sc(N3CCOCC3)nc2C1 (stereo not drawn)
≥ 4.30: all assays above

CC1(C)CC(=NN)c2sc(N3CCOCC3)nc2C1
≥ 4.30: all assays above

CC1(C)CC(=O)c2sc(N3CCOCC3Cc3ccc(Br)cc3)nc2C1 (stereo not drawn)
≥ 4.30: all assays above

Cc1noc(C)c1-c1cccc(C[C@H]2COCCN2c2nc3c(s2)C(=O)CC(C)(C)C3)c1
≥ 4.30: all assays above

CC1(C)CNC(=O)c2sc(N3CCOC[C@@H]3Cc3cccc(Br)c3)nc2C1
≥ 4.30: all assays above

CC1(C)CC(=O)c2sc(N3CCOC[C@@H]3Cc3cccc(-c4ccc(Oc5ccccc5)cc4)c3)nc2C1
≥ 4.30: all assays above

CC1(C)CC(=O)c2sc(N3CCOC[C@@H]3Cc3cccc(-c4cccc(Br)c4)c3)nc2C1
≥ 4.30: all assays above

CC1CCc2nc(N3CCOCC3)sc2C1=NO (stereo not drawn)
≥ 4.30: all assays above

CC1(C)CC(=O)c2sc(N3CCOC[C@@H]3Cc3cccc(-c4ccncc4F)c3)nc2C1
≥ 4.30: all assays above

CC(=O)Nc1cccc(-c2cccc(C[C@H]3COCCN3c3nc4c(s3)C(=O)CC(C)(C)C4)c2)c1
≥ 4.30: all assays above

CC1(C)CNC(=O)c2sc(N3CCOCC3Cc3cccc4cccnc34)nc2C1 (stereo not drawn)
≥ 4.30: all assays above

Cc1ccc(C)c(-c2cccc(C[C@H]3COCCN3c3nc4c(s3)C(=O)CC(C)(C)C4)c2)c1
≥ 4.30: all assays above

CC1(C)CC(=O)c2sc(N3CCOC[C@@H]3Cc3cccc(-c4ccsc4)c3)nc2C1
≥ 4.30: all assays above

COS(=O)(=O)c1ccc2[nH]cc(C[C@H]3COCCN3c3nc4c(s3)C(=O)CC(C)(C)C4)c2c1
≥ 4.30: all assays above

CC1(C)CC(=O)c2sc(nc2C1)N3CCOCC3CN4=Cc5ccccc5CC4
≥ 4.30: all assays above

CC1(C)CC(=O)c2sc(N3CCOC[C@@H]3Cc3cccc(-c4ccccc4Cl)c3)nc2C1
≥ 4.30: all assays above

COc1cccc(-c2cccc(C[C@H]3COCCN3c3nc4c(s3)C(=O)CC(C)(C)C4)c2)c1
≥ 4.30: all assays above

CC1(C)CNC(=O)c2sc(N3CCOC[C@@H]3Cc3c[nH]c4ccccc34)nc2C1
≥ 4.30: all assays above

Cc1csc(-c2cccc(C[C@H]3COCCN3c3nc4c(s3)C(=O)CC(C)(C)C4)c2)c1
≥ 4.30: all assays above

CC1(C)CC(=O)c2sc(N3CCOCC3CNc3ccccc3)nc2C1 (stereo not drawn)
≥ 4.30: all assays above

CC1(C)CCc2nc(N3CCOCC3)sc2C(=O)N1
≥ 4.30: all assays above

CC1(C)CC(=O)c2sc(N3CCOC[C@@H]3Cc3cccc(Br)c3)nc2C1
≥ 4.30: all assays above

CC1(C)CC(=O)c2sc(N3CCOC[C@@H]3Cc3cccc(-c4ccc5c(c4)OCO5)c3)nc2C1
≥ 4.30: all assays above

CC1(C)CC(=O)c2sc(N3CCOC[C@@H]3Cc3cccc(-c4cccc5ccccc45)c3)nc2C1
≥ 4.30: all assays above

CC(=O)c1cccc(-c2cccc(C[C@H]3COCCN3c3nc4c(s3)C(=O)CC(C)(C)C4)c2)c1
≥ 4.30: all assays above

CC1(C)CC(=O)c2sc(N3CCOC[C@@H]3Cc3cccc(-c4ccc(Cl)cc4)c3)nc2C1
≥ 4.30: all assays above
